The text below walks through data of article PMC9227536, “Prediction of Pharmacokinetics of IDP-73152 in Humans Using Physiologically-Based Pharmacokinetics” (Pharmaceutics, 2022).

Each structure is given as a SMILES string. Like-named read-outs stand apart in the source and are kept apart here.

A short description of data set [1]: Unbound fraction in plasma (rapid equilibrium dialysis), rat. The data set is classed as in vitro ADME. To be noted: rats plasma, 0.3, 1, 3 μM, RED 5 h, read-out: fu,p. As for the experimental part: The unbound fractions of IDP-73152 in various matrices were measured according to the manufacturer’s instructions for the rapid equilibrium dialysis (RED) device (ThermoFisher Scientific, Waltham, MA, USA). Briefly, IDP-73152 was added to the plasma or the microsomal/hepatocyte incubation buffer from various species (i.e., mouse, rat, dog, and human for microsomal incubation; rat for hepatocyte incubation) to obtain final concentrations of the compound at 0.3, 1, and 3 μM. After the membrane insert was placed in the RED plate, the solution containing IDP-73152 was added (400 µL) to the sample chamber, and the dialysis buffer (600 μL) was added to the buffer chamber. The RED plate was sealed with parafilm and then incubated at 37 °C in the orbital shaker (Lab Companion, Daejeon, Korea) at 100 rpm for 5 h. After a 50 μL aliquot was aspirated from both the sample and buffer chambers, an equal volume of protein-free buffer or blank medium was replaced in the aspirated sample or buffer to render the matrices compositionally identical. The IDP-73152 concentration in the buffer/sample chambers (i.e., CBuffer Chamber and CSample Chamber) was determined by an assay. Thus, the fraction unbound was defined as:(2) % Fraction unbound=(CBuffer Chamber/CSample Chamber)×100%
(In general: Equilibrium dialysis compares concentrations on both sides of a semipermeable membrane.)

Data set [2] is described as follows: Tissue distribution at steady state, constant-rate infusion in rats. To be noted: for Kp at 10 h: 10 h infusion, read-out: KP,ss. The data set is classed as in vivo. As for the experimental part: In this study, the extent of tissue distribution of IDP-73152 was also determined in rats. Rats received IDP-73152 at a constant rate of infusion (i.e., the rate of 0.8 mg/h (in 0.6 mL/h)) using a syringe pump (PHD ULTRA, Harvard apparatus, Holliston, MA, USA). The steady state was assumed to have been achieved when IDP-73152 was infused for 10 h (see below). Upon completion of the infusion, the animal was sacrificed, and major tissues (i.e., adipose tissue, brain, heart, kidney, liver, lung, muscle, skin, spleen, and testis) were collected. Assuming the density of tissues to be 1 g/mL, tissue samples were homogenized in twice their volume of phosphate buffered saline using a homogenizer (Ultra Turrax homogenizer, IKA-Werke GmbH & Co. KG, Staufen, Germany). Plasma samples and tissue homogenates were stored at −80 °C until analysis. The tissue-to-plasma concentration ratio at steady state (KP,ss) was then calculated for each tissue using the following equation [23, 24, 25]:(8) KP,ss=Ctissue,ss/Cplasma,ss, where Ctissue,ss and Cplasma,ss represent the concentration of the compound in the tissue and plasma at steady-state.
For the estimation of the volume of the distribution of IDP-73512 in rats, the steady-state volume of distribution (Vss) was calculated using the following equation [30]:(10) Vss=VP+Vrbc×EP+∑VT,i×KP,ss,i, where Vp, Vrbc, and VT,i are the volumes of plasma, red blood cells, and tissues, respectively. The erythrocyte-to-plasma partition coefficient (EP), is calculated by EP=1+(BP−1)/Hematocrit . The KP,ss for each tissue obtained from Equation (8) was applied for Equation (10). For the case of non-eliminating organs, the KP,ss was regarded as the tissue-to-plasma partition coefficient (KP) in PBPK equations (Appendix A). For the case of the liver—i.e., the eliminating organ—the KP,ss (KP,ss,LI) had to be corrected to account for the equilibrium being altered by the elimination. Thus, a PBPK-operative KP for liver (KP,LI) was calculated using the following equation [31]:(11) KP,LI=KP,ss,LI/(1−ER), where ER is the hepatic extraction ratio of the compound (i.e., CLh/(QLI·BP)). In this study, a compartmental absorption and transit (CAT) model consisting of stomach and five intestinal segments was considered for the description of the intestinal absorption kinetics of IDP-73152 in animals and humans. We assumed that the initial compartment denoted the stomach (Equation (12)), and the subsequent three compartments represented the small intestine and two additional compartments for the large intestine (i.e., a total of six compartments, with absorption occurring in the five intestinal compartments) (Equation (13)). The differential equations describing the rate of drug absorption and transit in the gastrointestinal tract can be written as: […]

A short description of data set [3]: Physicochemical properties (Table S3).
Details of data set [4]: method as in PMID 31440032. The settings on record: cited from earlier work; for Observed AUCinf / Observed Cmax: humans, fasting.

On to `CC(C)(C)[C@H](NC(=O)[C@H](CC1CCCC1)CN(O)C=O)C(=O)N1CCC(NCc2cc(F)c(F)cc2F)CC1` [IDP-73152], for which the fraction unbound at 5 h in data set [1] was 0.0582 ± 0.005. The Kp at 10 h in data set [2] (Sprague Dawley, rat, intravenous, 0.8 mg/h, adipose tissue) amounted to 0.853 ± 0.196; in data set [2] (Sprague Dawley, rat, intravenous, 0.8 mg/h, brain) it was 0.0729 ± 0.0167; in data set [2] (Sprague Dawley, rat, intravenous, 0.8 mg/h, heart) it was 2.15 ± 0.22; in data set [2] (Sprague Dawley, rat, intravenous, 0.8 mg/h, kidney), 8.68 ± 1.83; in data set [2] (Sprague Dawley, rat, intravenous, 0.8 mg/h, liver), 12.2 ± 3.3; in data set [2] (Sprague Dawley, rat, intravenous, 0.8 mg/h, lung) it was 7.13 ± 1.28. The Kp at 10 h in data set [2] (Sprague Dawley, rat, intravenous, 0.8 mg/h, muscle) came to 1.37 ± 0.3; in data set [2] (Sprague Dawley, rat, intravenous, 0.8 mg/h, skin), 1.08 ± 0.38; in data set [2] (Sprague Dawley, rat, intravenous, 0.8 mg/h, spleen), 4.82 ± 1.3; in data set [2] (Sprague Dawley, rat, intravenous, 0.8 mg/h, testis) it was 0.338 ± 0.089. Moreover, the “plasma concentration during infusion” value in data set [2] (intravenous infusion 0.8 mg/h, 10 h) stood at 2120 ± 340 ng/mL. In data set [2] (male, Sprague Dawley, rat, plasma and tissue homogenates, intravenous, 0.8 mg/h, from KP,ss of ten tissues, read-out: Vss calculated by Equation (10)), the Vd was 2.09 L/kg. Further, in data set [2] (male, Sprague Dawley, rat, plasma, intravenous infusion 0.8 mg/h for 10 h, from CLp, read-out: expected steady-state concentration), the concentration at 10 h was found to be 2120 ± 340 ng/mL. Further, the concentration at 8 h in data set [2] (male, Sprague Dawley, rat, plasma, intravenous infusion 0.8 mg/h, 8 h, read-out: plasma concentration during infusion) amounted to 2070 ± 360 ng/mL. For the same compound, in data set [2] (male, Sprague Dawley, rat, plasma, intravenous infusion 0.8 mg/h, 9 h, read-out: plasma concentration during infusion), the concentration at 9 h came to 1910 ± 270 ng/mL. This compound gave a logP in data set [3] of -0.52. In data set [3], the pKa was determined as 8.8. Besides, the “adverse effects” value in data set [4] (human subjects, single oral dose of 40–1280 mg) is given as “without clinically significant adverse effects”. Further, the “Observed AUCinf” value is 43400 ± 4470 ng·h/mL in data set [4] (single oral 640 mg) and 77400 ± 15400 ng·h/mL in data set [4] (single oral 1280 mg). Moreover, the “Observed Cmax” value is 8920 ± 1170 ng/mL in data set [4] (single oral 640 mg) and 13200 ± 2500 ng/mL in data set [4] (single oral 1280 mg).

Usually logP stands for a log measure of how a compound divides between an organic and an aqueous phase. Higher therefore signals higher lipophilicity. A word on the pKa: it is the pH at which an ionisable group is half protonated. Read a low pKa as a group that gives up its proton readily.
